In patent publication US5874461A, “Use of Nebivolol as an anti-atherogenic” (priority 1995, dated 1999):

How the values were obtained:
human LDL = experiment: In vitro oxidation of human LDL (Cu-induced conjugated diene formation at 234 nm); format: biochemical; details: in vitro
Experimental: In vitro oxidation of human LDL Human venous blood was collected on EDTA (2.68 mM final concentration). Plasma was isolated by centrifugation. NaBr (37.3 mg/ml) was added and solubulized (final density 1.036 g/ml). Centrifuge tubes were first filled to a level corresponding to 2/3 of their maximal volume, further filled with a NaBr solution of 1.036 g/ml and then centrifuged for 18 hours at 45000 rpm in a 50 Ti rotor (Beckmann). After centrifugation, floating lipoproteins were discarded. The remaining solution was adjusted to a density of 1.055 g/ml. Filling of the centrifuge tubes and centrifugation were repeated as described above. After centrifugation, floating LDL was dialysed against a buffer containing 127 mM NaCl, 8 mM Na2 HPO4.2H2 O, 2.7 mM KCl and 1.47 mM KH2 PO4 at pH 7.4. After dialysis, LDL was filtered though a Millipore filter (0.45 μM) and protein content was determined. A dilution of 25 μg/ml was prepared with a millipored dialysis buffer. Oxidation was determined in a Pharmacia Ultraspec III spectrophotometer. Conjugated diene formation was registered at 234 nm. Two μl of a drug or solvent (DMSO) were added to Eppendorf tubes followed by 1 ml of LDL (25 μg/ml) and these substances were gently mixed and centrifuged for 1 min at 13000 g. The solution was pipetted in a Quartz cuvet that was thermostatised in the spectrophotometer at 37° C. After equilibration, the oxidation reaction was started by the addition of CuSO4 (final concentration 10 μM). Absorbance was measured every 3 minutes during the time course of the experiment. The absorbance at 234 nm was divided into three phases: a lag phase, a propagation phase and a decomposition phase (FIG. 1). The lag phase was defined as the intercept with the baseline of the tangent of the slope of the absorbance curve of the propagation phase. The rate of oxidation was defined as the tangent of the slope. Tmax was defined as the time required to attain the maximum absorbance between the propagation and the decomposition phase. The absorbance at tmax minus the absorbance at to was taken as an indicator of the total amount of dienes formed. To verify the reproducibility of the assay, a reference LDL sample was prepared and kept in darkness under nitrogen at 4° C. This reference sample was included in every oxidation experiment. LDL was isolated from 23 subjects. Plasma cholesterol ranged from 156 to 278 mg/dl (mean 213 mg/dl), triglycerides ranged from 47 to 328 mg/dl (mean 191 mg/dl) and phospholipids ranged from 178 to 327 mg/dl (mean 231 mg/dl).

[1] = system: rats (age-associated vascular pathology); experiment: In-vivo anti-atheromatic effect: 24-month oral study in rats, histological score of vascular degeneration/aging
Experimental: In order to verify whether nebivolol had any effects on age-associated vascular pathology, a number of rats were administered nebivolol orally at dosages of 0 (carrier-only), 2.5, 10 and 40 mg/kg during 24 months. As a carrier there was used 2-hydroxypropyl-β-cyclodextrin which improves the bioavailability of nebivolol. At each dose a male and a female group of 50 were entered in the 2 year study. […] The test animals were autopsied and observed for histological non-neoplastic changes.
vasculopathy of the abdominal mesothelia, pancreas, and testis,
focal and diffuse hyperplasia of the parathyroid gland, and
the renal histology, in particular the number of basophilic tubuli, evidence for chronic renal disease and for mineralization.
Histopathological observations received a score from 0 to 3 as follows:
0: no histological change
1: slight histological change
2: moderate histological change
3: severe histological change.
For each observation a mean score was calculated. The observed ratings were analysed using the Mann-Whitney U test (two tailed probability) to detect statistically significant differences between the control groups and the treated groups. Significance computed by Mann-Whitney U test two-tailed: * p<0.05 ** p<0.01 p<0.001.

anaesthetized dogs = details: anaesthesized dogs; cited from earlier work
[2] = females, 2.5 mg/kg oral, 24 months
[3] = females, 10 mg/kg oral, 24 months
[4] = females, 40 mg/kg oral, 24 months
[5] = males, 2.5 mg/kg oral, 24 months
[6] = males, 10 mg/kg oral, 24 months
[7] = males, 40 mg/kg oral, 24 months

Question: Which results are given for `O[C@H](CNC[C@@H](O)[C@H]1CCc2cc(F)ccc2O1)[C@@H]1CCc2cc(F)ccc2O1` (relative stereo) [nebivolol, (RSSS) and (SRRR) α,α'-iminobis(methylene)bis[6-fluoro-2-chroman-methanol]]?
Answer: antioxidative effect on human LDL (human LDL): no antioxidative effect; normal aging of the vascular system ([1]; chronic treatment, versus control animals): the normal aging of the vascular system as seen in the control animals is suppressed; Kidney: basophilic tubuli, mean score (0-3) [1, 2]: 0.18; Kidney: chronic disease, mean score (0-3) [1, 2]: 0.88; Kidney: mineralization (parenchum/pelvis), mean score (0-3) [1, 2]: 0.84; Pancreas: vasculopathy, mean score (0-3) [1, 2]: 0.04; Kidney: basophilic tubuli, mean score (0-3) [1, 3]: 0.18; Kidney: chronic disease, mean score (0-3) [1, 3]: 0.92; Kidney: mineralization (parenchum/pelvis), mean score (0-3) [1, 3]: 0.64; Pancreas: vasculopathy, mean score (0-3) [1, 3]: 0.02; Kidney: basophilic tubuli, mean score (0-3) [1, 4]: 0.42; Kidney: chronic disease, mean score (0-3) [1, 4]: 0.78; Kidney: mineralization (parenchum/pelvis), mean score (0-3) [1, 4]: 0.14; Pancreas: vasculopathy, mean score (0-3) [1, 4]: 0.00; Kidney: basophilic tubuli, mean score (0-3) [1, 5]: 0.18; Kidney: chronic disease, mean score (0-3) [1, 5]: 1.32; Pancreas: vasculopathy, mean score (0-3) [1, 5]: 0.04; Parathyroid gland: diffuse hyperplasia, mean score (0-3) [1, 5]: 0.08; Parathyroid gland: focal hyperplasia, mean score (0-3) [1, 5]: 0.04; Testis: vasculopathy, mean score (0-3) [1, 5]: 0.20; Kidney: basophilic tubuli, mean score (0-3) [1, 6]: 0.18; Kidney: chronic disease, mean score (0-3) [1, 6]: 1.24; Pancreas: vasculopathy, mean score (0-3) [1, 6]: 0.02; Parathyroid gland: diffuse hyperplasia, mean score (0-3) [1, 6]: 0.15; Parathyroid gland: focal hyperplasia, mean score (0-3) [1, 6]: 0.02; Testis: vasculopathy, mean score (0-3) [1, 6]: 0.08; Abdominal mesothelia: vasculopathy, mean score (0-3) [1, 7]: 0.00; Kidney: basophilic tubuli, mean score (0-3) [1, 7]: 0.60; Kidney: chronic disease, mean score (0-3) [1, 7]: 0.66; Pancreas: vasculopathy, mean score (0-3) [1, 7]: 0.00; Parathyroid gland: diffuse hyperplasia, mean score (0-3) [1, 7]: 0.02; Parathyroid gland: focal hyperplasia, mean score (0-3) [1, 7]: 0.00; Testis: vasculopathy, mean score (0-3) [1, 7]: 0.02; stroke volume (anaesthetized dogs): augments stroke volume; total peripheral vascular resistance (anaesthetized dogs): decreases total peripheral vascular resistance
